# Assay results published in paper PMC5596636 (ACS chemical neuroscience, 2016).
# “Also recorded” adds a separate entry of the source.
# Tests used:
# hMC4R [1] = settings: cited from earlier work
# mMC3R [2] = target: T1, mMC3R (Mus musculus, UniProt P33033); assay: cAMP-based β-galactosidase reporter agonist assay in HEK293 cells, mMC3R; settings: for mMC3R fold difference: EC50 of substituted peptide divided by EC50 of NDP-MSH, potency loss
# mMC1R [3] = target: T2, mMC1R (Mus musculus, UniProt Q01727); assay: cAMP-based β-galactosidase reporter agonist assay in HEK293 cells, mMC1R; settings: for mMC1R fold difference: potency loss
# mMC5R [4] = target: T3, mMC5R (Mus musculus, UniProt P41149); assay: cAMP-based β-galactosidase reporter agonist assay in HEK293 cells, mMC5R; settings: for mMC5R fold difference: potency loss
# mMC4R [5] = target: T4, mMC4R (Mus musculus, UniProt P56450); assay: cAMP-based β-galactosidase reporter agonist assay in HEK293 cells, mMC4R; settings: for mMC4R fold difference: potency loss
# mMC1R [6] = target: T2, mMC1R; settings: B16 murine melanoma cells; relative to α-MSH; cited from earlier work
# mMC1R [7] = target: T2, mMC1R; settings: B16 murine melanoma cells; relative to α-MSH; cited from earlier work; remark: listed apart in the source
# rMC3R = settings: HEK293 cells expressing the rMC3R; relative to α-MSH; cited from earlier work
# hMC1R [8] = settings: COS cell-line expressing human melanocortin receptors; cited from earlier work
# hMC4R [9] = settings: cited from earlier work; remark: listed apart in the source
# hMC3R = settings: COS cell-line expressing human melanocortin receptors; cited from earlier work
# hMC1R [10] = settings: cited from earlier work
# mMC1R [11] = target: T2, mMC1R; settings: cloned mouse receptors; cited from earlier work
# mMC4R [12] = target: T4, mMC4R; settings: cloned mouse receptors; cited from earlier work
# mMC5R [13] = target: T3, mMC5R; settings: cloned mouse receptors; cited from earlier work
# mMC3R [14] = target: T1, mMC3R; settings: cloned mouse receptors; cited from earlier work
# [15] = EC50 of substituted peptide divided by EC50 of NDP-MSH
# [16] = EC50 of substituted peptide divided by EC50 of α-MSH
# T2 sequence (Q01727 whole entry): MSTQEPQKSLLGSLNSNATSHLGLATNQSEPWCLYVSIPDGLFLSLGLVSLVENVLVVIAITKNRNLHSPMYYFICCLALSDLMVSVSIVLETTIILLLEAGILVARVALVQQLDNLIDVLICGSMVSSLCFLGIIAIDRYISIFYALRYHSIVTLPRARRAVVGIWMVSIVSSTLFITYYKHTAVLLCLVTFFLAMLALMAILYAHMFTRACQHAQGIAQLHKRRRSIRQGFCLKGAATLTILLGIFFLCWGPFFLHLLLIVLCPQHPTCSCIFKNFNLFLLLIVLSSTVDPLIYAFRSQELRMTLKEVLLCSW
# T1 sequence (P33033 whole entry): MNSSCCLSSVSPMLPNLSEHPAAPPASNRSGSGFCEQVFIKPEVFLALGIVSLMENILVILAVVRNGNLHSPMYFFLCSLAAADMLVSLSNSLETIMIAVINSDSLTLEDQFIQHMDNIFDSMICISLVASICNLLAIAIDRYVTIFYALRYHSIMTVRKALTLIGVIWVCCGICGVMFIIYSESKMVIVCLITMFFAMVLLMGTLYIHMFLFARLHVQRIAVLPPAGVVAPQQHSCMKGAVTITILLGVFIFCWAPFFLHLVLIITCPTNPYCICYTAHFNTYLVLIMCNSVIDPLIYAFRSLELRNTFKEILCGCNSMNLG
# T4 sequence (P56450 whole entry): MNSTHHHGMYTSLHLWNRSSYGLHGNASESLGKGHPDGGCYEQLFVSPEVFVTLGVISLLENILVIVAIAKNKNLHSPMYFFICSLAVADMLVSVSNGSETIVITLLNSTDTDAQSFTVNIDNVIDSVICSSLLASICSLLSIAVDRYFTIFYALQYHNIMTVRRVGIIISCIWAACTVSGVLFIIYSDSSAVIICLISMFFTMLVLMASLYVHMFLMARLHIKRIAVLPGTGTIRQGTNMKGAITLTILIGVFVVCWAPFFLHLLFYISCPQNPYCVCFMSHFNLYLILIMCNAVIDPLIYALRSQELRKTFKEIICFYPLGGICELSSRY
# T3 sequence (P41149 whole entry): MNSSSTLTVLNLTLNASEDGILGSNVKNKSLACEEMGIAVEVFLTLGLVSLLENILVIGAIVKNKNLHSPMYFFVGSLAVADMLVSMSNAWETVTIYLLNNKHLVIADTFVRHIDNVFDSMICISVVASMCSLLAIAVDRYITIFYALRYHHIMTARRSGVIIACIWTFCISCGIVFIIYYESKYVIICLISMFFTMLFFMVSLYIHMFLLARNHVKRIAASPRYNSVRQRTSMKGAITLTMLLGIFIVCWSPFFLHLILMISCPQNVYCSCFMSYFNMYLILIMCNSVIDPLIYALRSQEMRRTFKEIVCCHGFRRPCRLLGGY
Compound,EC50 (mMC3R [2]) [nM],mMC3R fold difference (mMC3R [2]),mMC1R fold difference (mMC1R [3]; [15]),mMC5R fold difference (mMC5R [4]; [15]),mMC4R fold difference (mMC4R [5]; [15]),fold decreased tyrosinase potency at the mMC1R (mMC1R [6]),mMC1R fold difference (mMC1R [3]; [16]) [fold],fold decreased binding affinity at the mMC1R (mMC1R [7]),mMC5R fold difference (mMC5R [4]; [16]),fold decreased binding affinity at the rMC3R (rMC3R),mMC4R fold difference (mMC4R [5]; [16]) [fold],further results
"CCCC[C@H](NC(=O)[C@H](CO)NC(=O)[C@H](Cc1ccc(O)cc1)NC(=O)[C@H](CO)NC(C)=O)C(=O)N[C@@H](C)C(=O)N[C@@H](Cc1c[nH]cn1)C(=O)N[C@H](Cc1ccccc1)C(=O)N[C@@H](CCCNC(=N)N)C(=O)N[C@@H](Cc1c[nH]c2ccccc12)C(=O)NCC(=O)N[C@@H](CCCCN)C(=O)N1CCC[C@H]1C(=O)N[C@H](C(N)=O)C(C)C [[Ala^5]NDP-MSH, Ac-Ser-Tyr-Ser-Nle-Ala-His-DPhe-Arg-Trp-Gly-Lys-Pro-Val-NH2]",1.18 ± 0.4,5 fold,no change,no change,4 fold,–,–,–,–,–,–,fold decreased agonist potency at the hMC4R relative to NDP-MSH (hMC4R [1]): 4 fold
CSCC[C@H](NC(=O)[C@H](CO)NC(=O)[C@H](Cc1ccc(O)cc1)NC(=O)[C@H](CO)NC(C)=O)C(=O)N[C@@H](C)C(=O)N[C@@H](Cc1c[nH]cn1)C(=O)N[C@@H](Cc1ccccc1)C(=O)N[C@@H](CCCNC(=N)N)C(=O)N[C@@H](Cc1c[nH]c2ccccc12)C(=O)NCC(=O)N[C@@H](CCCCN)C(=O)N1CCC[C@H]1C(=O)N[C@H](C(N)=O)C(C)C [[Ala^5]α-MSH],220 ± 55,–,–,–,–,equipotent,1560,equipotent,unaltered,equipotent,15,"selectivity for the mMC3R over the mMC1R (mMC3R [2]; from agonist EC50 values): 220 fold; EC50 (mMC1R [3]; mMC1R EC50, bound, Table 2, EC50 higher than 20 μM): > 20000 nM; selectivity for the mMC5R over the mMC1R (mMC5R [4]; from agonist EC50 values): 740 fold; selectivity for the mMC4R over the mMC1R (mMC4R [5]; from agonist EC50 values): 130 fold"
"CCCC[C@H](NC(=O)[C@H](CO)NC(=O)[C@H](Cc1ccc(O)cc1)NC(=O)[C@H](CO)NC(C)=O)C(=O)N[C@@H](CCC(=O)O)C(=O)N[C@@H](C)C(=O)N[C@H](Cc1ccccc1)C(=O)N[C@@H](CCCNC(=N)N)C(=O)N[C@@H](Cc1c[nH]c2ccccc12)C(=O)NCC(=O)N[C@@H](CCCCN)C(=O)N1CCC[C@H]1C(=O)N[C@H](C(N)=O)C(C)C [[Ala^6]NDP-MSH, Ac-Ser-Tyr-Ser-Nle-Glu-Ala-DPhe-Arg-Trp-Gly-Lys-Pro-Val-NH2]",0.55 ± 0.12,did not alter agonist potency; also recorded: equipotency,did not alter agonist potency,did not alter agonist potency,did not alter agonist potency,–,–,–,–,–,–,fold decreased agonist potency at the hMC4R relative to NDP-MSH (hMC4R [1]): 4 fold; fold decreased binding affinity at the hMC1R (hMC1R [8]): 8 fold; efficacy relative to NDP-MSH at the hMC4R (hMC4R [9]): 40%; fold agonist potency loss at the hMC4R relative to NDP-MSH (hMC4R [9]): equipotent; fold decreased binding affinity at the hMC3R (hMC3R): 6 fold
CSCC[C@H](NC(=O)[C@H](CO)NC(=O)[C@H](Cc1ccc(O)cc1)NC(=O)[C@H](CO)NC(C)=O)C(=O)N[C@@H](CCC(=O)O)C(=O)N[C@@H](C)C(=O)N[C@@H](Cc1ccccc1)C(=O)N[C@@H](CCCNC(=N)N)C(=O)N[C@@H](Cc1c[nH]c2ccccc12)C(=O)NCC(=O)N[C@@H](CCCCN)C(=O)N1CCC[C@H]1C(=O)N[C@H](C(N)=O)C(C)C [[Ala^6]α-MSH],4270 ± 1960,–,–,–,–,6 fold,35,83 fold,45 fold,6 fold,110,–
CSCC[C@H](NC(=O)[C@H](CO)NC(=O)[C@H](Cc1ccc(O)cc1)NC(=O)[C@H](CO)NC(C)=O)C(=O)N[C@@H](CCC(=O)O)C(=O)N[C@@H](Cc1c[nH]cn1)C(=O)N[C@@H](C)C(=O)N[C@@H](CCCNC(=N)N)C(=O)N[C@@H](Cc1c[nH]c2ccccc12)C(=O)NCC(=O)N[C@@H](CCCCN)C(=O)N1CCC[C@H]1C(=O)N[C@H](C(N)=O)C(C)C [[Ala^7]α-MSH],1660 ± 825,–,–,–,–,260 fold,200,500 fold,210 fold,91 fold,190,–
"CCCC[C@H](NC(=O)[C@H](CO)NC(=O)[C@H](Cc1ccc(O)cc1)NC(=O)[C@H](CO)NC(C)=O)C(=O)N[C@@H](CCC(=O)O)C(=O)N[C@@H](Cc1c[nH]cn1)C(=O)N[C@H](Cc1ccccc1)C(=O)N[C@@H](C)C(=O)N[C@@H](Cc1c[nH]c2ccccc12)C(=O)NCC(=O)N[C@@H](CCCCN)C(=O)N1CCC[C@H]1C(=O)N[C@H](C(N)=O)C(C)C [[Ala^8]NDP-MSH, Ac-Ser-Tyr-Ser-Nle-Glu-His-DPhe-Ala-Trp-Gly-Lys-Pro-Val-NH2]",2.07 ± 0.42,–,6 fold,did not affect the agonist potency,29 fold,–,–,–,–,–,–,fold agonist potency loss at the hMC4R relative to NDP-MSH (hMC4R [9]): 32 fold
CSCC[C@H](NC(=O)[C@H](CO)NC(=O)[C@H](Cc1ccc(O)cc1)NC(=O)[C@H](CO)NC(C)=O)C(=O)N[C@@H](CCC(=O)O)C(=O)N[C@@H](Cc1c[nH]cn1)C(=O)N[C@@H](Cc1ccccc1)C(=O)N[C@@H](C)C(=O)N[C@@H](Cc1c[nH]c2ccccc12)C(=O)NCC(=O)N[C@@H](CCCCN)C(=O)N1CCC[C@H]1C(=O)N[C@H](C(N)=O)C(C)C [[Ala^8]α-MSH],670 ± 215,–,–,–,–,100 fold,200,2080 fold,5 fold,200 fold,470,selectivity for the mMC5R over the mMC4R (mMC5R [4]; from agonist EC50 values): 120 fold
"CCCC[C@H](NC(=O)[C@H](CO)NC(=O)[C@H](Cc1ccc(O)cc1)NC(=O)[C@H](CO)NC(C)=O)C(=O)N[C@@H](CCC(=O)O)C(=O)N[C@@H](Cc1c[nH]cn1)C(=O)N[C@H](Cc1ccccc1)C(=O)N[C@@H](CCCNC(=N)N)C(=O)N[C@@H](C)C(=O)NCC(=O)N[C@@H](CCCCN)C(=O)N1CCC[C@H]1C(=O)N[C@H](C(N)=O)C(C)C [[Ala^9]NDP-MSH, Ac-Ser-Tyr-Ser-Nle-Glu-His-DPhe-Arg-Ala-Gly-Lys-Pro-Val-NH2]",295 ± 92,1230 fold,180 fold,220 fold,2120 fold,–,–,–,–,–,–,activation of the hMC4R (hMC4R [9]; at concentrations up to 100 μM): not to activate; agonist efficacy at the hMC1R (hMC1R [10]): full agonist; fold less potent than NDP-MSH at the hMC1R (hMC1R [10]): 3 fold
CSCC[C@H](NC(=O)[C@H](CO)NC(=O)[C@H](Cc1ccc(O)cc1)NC(=O)[C@H](CO)NC(C)=O)C(=O)N[C@@H](CCC(=O)O)C(=O)N[C@@H](Cc1c[nH]cn1)C(=O)N[C@@H](Cc1ccccc1)C(=O)N[C@@H](CCCNC(=N)N)C(=O)N[C@@H](C)C(=O)NCC(=O)N[C@@H](CCCCN)C(=O)N1CCC[C@H]1C(=O)N[C@H](C(N)=O)C(C)C [[Ala^9]α-MSH],15700 ± 4870,–,–,–,–,120 fold,570,2000 fold,1370 fold,83 fold,1500,"EC50 (mMC5R [4]; mMC5R EC50, bound, Table 2, EC50 higher than 20 μM): > 20000 nM; EC50 (mMC4R [5]; mMC4R EC50, bound, Table 2, EC50 higher than 20 μM): > 20000 nM"
Ac-His-Phe-Arg-Trp-NH2,–,–,–,–,–,–,–,–,–,–,–,agonist potency at the mMC1R (mMC1R [11]): micromolar potency; agonist potency at the mMC4R (mMC4R [12]): micromolar potency; agonist potency at the mMC5R (mMC5R [13]): sub-micromolar potency; agonist potency at the mMC3R (mMC3R [14]): micromolar potency
